Assay results published in patent US10111881B2 (priority 2016, dated 2018).
“Also recorded” adds a separate entry of the source. Like-named read-outs stand apart in the source and are kept apart here.

Legend:
HeLa cells [1] = test system: HeLa cells
[2] = test system: Baby hamster kidney fibroblasts (BHK) cells; assay: Acridine orange assay for acidification blockers; type: cell-based
HeLa cells [3] = type: cell-based, human; conditions: for Dextran Uptake: 50 μM
EBOV [4] = assay: organism not typed; type: cell-based, Zaire Ebolavirus (Mayinga strain)
Cathepsin = Cathepsin cleavage of GP
NPC1 C-loop = target: T1, NPC1 C-loop (Homo sapiens, UniProt O15118); assay: NPC1 C-loop binding
T1 construct: C-loop
T1 sequence (O15118 372-620 limits assumed): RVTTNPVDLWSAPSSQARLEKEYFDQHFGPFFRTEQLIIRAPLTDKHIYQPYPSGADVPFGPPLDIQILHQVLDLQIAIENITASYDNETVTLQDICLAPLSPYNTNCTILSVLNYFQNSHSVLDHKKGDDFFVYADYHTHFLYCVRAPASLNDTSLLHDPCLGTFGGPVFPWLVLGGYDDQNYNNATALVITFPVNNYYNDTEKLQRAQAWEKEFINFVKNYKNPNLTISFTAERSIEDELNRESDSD

IL-1-Beta = conditions: PubChem / MLSMR data; cited from earlier work
EBOV [5] = assay: microbe, parasite or virus in culture; type: cell-based, Zaire Ebolavirus (Mayinga strain)
HeLa cells [6] = type: cell-based, human; conditions: for Transferrin uptake: 50 μM
EBOV [7] = type: cell-based, Zaire Ebolavirus (Mayinga strain)
MARV = assay: microbe, parasite or virus in culture; type: cell-based, Marburgvirus (Musoke strain)
MDM2/A = MDM2/A (Homo sapiens, UniProt Q00987); conditions: MLSMR screening network data; cited from earlier work
HeLa cells [8] = type: cell-based, human
MDM4/1 = target: T2, MDM4/1 (Homo sapiens, UniProt O15151); conditions: MLSMR screening network data; cited from earlier work
T2 sequence (O15151 1-490): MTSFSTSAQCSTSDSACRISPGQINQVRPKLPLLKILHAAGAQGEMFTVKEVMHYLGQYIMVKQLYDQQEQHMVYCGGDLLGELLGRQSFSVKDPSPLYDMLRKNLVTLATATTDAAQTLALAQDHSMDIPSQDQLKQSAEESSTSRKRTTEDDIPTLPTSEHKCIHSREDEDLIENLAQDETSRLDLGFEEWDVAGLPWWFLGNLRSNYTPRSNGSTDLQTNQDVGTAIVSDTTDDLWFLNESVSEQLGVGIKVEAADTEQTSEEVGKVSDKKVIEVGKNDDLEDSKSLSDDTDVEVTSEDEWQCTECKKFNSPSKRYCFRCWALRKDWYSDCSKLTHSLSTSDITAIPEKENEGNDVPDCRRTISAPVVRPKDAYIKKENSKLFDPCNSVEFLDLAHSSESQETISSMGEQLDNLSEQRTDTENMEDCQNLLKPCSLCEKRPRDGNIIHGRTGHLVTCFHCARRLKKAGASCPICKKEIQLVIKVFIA

LAMP1-positive vesicles = type: cell-based, human
EEA1-positive vesicles = type: cell-based, human
[9] = read-out: Activity in macrophages IC50

MDM2/A, sequence (Q00987 whole entry, species assumed): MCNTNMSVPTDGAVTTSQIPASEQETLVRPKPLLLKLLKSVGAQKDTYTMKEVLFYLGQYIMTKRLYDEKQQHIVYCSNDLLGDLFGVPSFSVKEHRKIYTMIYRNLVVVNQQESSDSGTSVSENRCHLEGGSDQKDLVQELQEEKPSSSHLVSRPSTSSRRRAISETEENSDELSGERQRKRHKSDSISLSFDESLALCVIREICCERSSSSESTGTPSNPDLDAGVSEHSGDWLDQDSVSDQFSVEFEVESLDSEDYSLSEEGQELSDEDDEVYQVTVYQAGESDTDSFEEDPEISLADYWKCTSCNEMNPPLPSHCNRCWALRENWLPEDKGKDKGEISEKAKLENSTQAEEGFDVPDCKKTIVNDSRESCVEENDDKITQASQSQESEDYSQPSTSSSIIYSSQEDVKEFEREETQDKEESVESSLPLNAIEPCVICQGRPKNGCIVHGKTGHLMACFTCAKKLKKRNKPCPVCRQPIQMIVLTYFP

SMILES: CCN(c1nc(N)c(C(=O)NC(=N)N)nc1Cl)C(C)C [EIPA, reference compound]
- toxic concentration (not toxic up to / toxic at) (HeLa cells [1]): 37 µM
- effect on endosomal acidification [2]: decreases endosomal acidification
- reduction of uptake of fluorescently labeled dextran (HeLa cells [3]): 95%

SMILES: C=C(c1ccc(O)cc1)c1ccc(O)cc1 [MLS000078751]
- Curve Class (EBOV) (EBOV [4]): 1.3
- EBOV (curve class) (EBOV [4]): 1.3
- IC50 (EBOV [4]; read-out: EBOV HeLa IC50): 25.6 µM
- IC50 (EBOV [4]; read-out: IC-50 (EBOV)): 25.6 µM
- Acidification Block [2]: −
- Cathepsin clevage (Cathepsin): 0
- NPC1 C-loop binding (NPC1 C-loop): 0
- secretion of IL-1-Beta (IL-1-Beta): inhibit secretion of IL-1-Beta
- Dextran Uptake (HeLa cells [3]): 0
- IC50 (EBOV [5]; [9]): ~25 µM
- Transferrin uptake (HeLa cells [6]): 0
- Surface interaction (EBOV [7]): −
- Uninfected cell number (EBOV [7]): +
- decrease in total viral particles bound to cell surface (EBOV [7]): 53%
- virus particle uptake (EBOV [7]): reduced particle uptake
- Curve class (MARV) (MARV): 1.5
- MARV (Curve class) (MARV): 1.5
- IC50 (MARV; read-out: IC-50 (MARV)): 6.13 µM
- IC50 (MARV; read-out: MARV HeLa IC50): 6.1 µM

SMILES: N#Cc1c(NCCN)nc(-c2ccccc2)c2c1CCCC2 [MLS000534476]
- Curve Class (EBOV) (EBOV [4]): 1.6
- EBOV (curve class) (EBOV [4]): 1.6
- IC50 (EBOV [4]; read-out: EBOV HeLa IC50): 24.4 µM
- IC50 (EBOV [4]; read-out: IC-50 (EBOV)): 24.4 µM
- inhibition of MDM2/A (MDM2/A): identified as inhibitors
- Acidification Block [2]: +
- effect on endosomal acidification [2]: affected endosomal acidification
- Cathepsin clevage (Cathepsin): 0
- GP cleavage by cellular proteases (Cathepsin): reduced GP cleavage
- NPC1 C-loop binding (NPC1 C-loop): 0
- decrease in transferrin binding to cells (HeLa cells [8]): > 55%
- Dextran Uptake (HeLa cells [3]): 0
- IC50 (EBOV [5]; [9]): 3.6 µM
- Transferrin uptake (HeLa cells [6]): −
- inhibition of MDM4/1 (MDM4/1): identified as inhibitors
- Surface interaction (EBOV [7]): −
- Uninfected cell number (EBOV [7]): +
- decrease in total viral particles bound to cell surface (EBOV [7]): 55%
- virus particle uptake (EBOV [7]): reduced particle uptake
- Curve class (MARV) (MARV): 1.3
- MARV (Curve class) (MARV): 1.3
- IC50 (MARV; read-out: IC-50 (MARV)): 6.21 µM
- IC50 (MARV; read-out: MARV HeLa IC50): 6.2 µM

SMILES: CC(C)(CS(=O)(=O)[O-])NC(=O)CC[N+](C)(C)CCO [MLS000554255]
- Curve Class (EBOV) (EBOV [4]): 1.5
- EBOV (curve class) (EBOV [4]): 1.5
- IC50 (EBOV [4]; read-out: EBOV HeLa IC50): 6.8 µM
- IC50 (EBOV [4]; read-out: IC-50 (EBOV)): 6.84 µM
- Effect on LAMP1 (LAMP1-positive vesicles): −
- reduction of number of VLPs present in LAMP1-positive vesicles (LAMP1-positive vesicles): 33%
- Acidification Block [2]: −
- Cathepsin clevage (Cathepsin): 0
- Effect on EEA1 (EEA1-positive vesicles): +
- increase of colocalization of VLPs with EEA1-positive vesicles (EEA1-positive vesicles): 83%
- NPC1 C-loop binding (NPC1 C-loop): 0
- Dextran Uptake (HeLa cells [3]): 0
- IC50 (EBOV [5]; [9]): 6 µM
- effect on transferrin uptake (HeLa cells [6]): do not inhibit transferrin uptake
- Transferrin uptake (HeLa cells [6]): 0
- Surface interaction (EBOV [7]): 0
- Uninfected cell number (EBOV [7]): +
- number of cells without virus bound (EBOV [7]): increased the number of cells without virus bound
- Curve class (MARV) (MARV): 1.3
- MARV (Curve class) (MARV): 1.3
- IC50 (MARV; read-out: IC-50 (MARV)): 6.39 µM
- IC50 (MARV; read-out: MARV HeLa IC50): 6.4 µM

SMILES: CC(C)(C)c1nc2ccccc2c2nnc(SCC(=O)Nc3nccs3)n12 [MLS000555232]
- Curve Class (EBOV) (EBOV [4]): 1.6
- EBOV (curve class) (EBOV [4]): 1.6
- IC50 (EBOV [4]; read-out: EBOV HeLa IC50): 1.7 µM
- IC50 (EBOV [4]; read-out: IC-50 (EBOV)): 1.74 µM
- Effect on LAMP1 (LAMP1-positive vesicles): −
- reduction of number of VLPs present in LAMP1-positive vesicles (LAMP1-positive vesicles): 89%
- inhibition of MDM2/A (MDM2/A): identified as inhibitors
- Acidification Block [2]: −
- Cathepsin clevage (Cathepsin): 0
- Effect on EEA1 (EEA1-positive vesicles): −
- reduction of colocalization of EBOV VLPs with EEA1-positive vesicles (EEA1-positive vesicles): 77%
- NPC1 C-loop binding (NPC1 C-loop): 0
- Dextran Uptake (HeLa cells [3]): 0
- IC50 (EBOV [5]; [9]): 9.4 µM
- effect on transferrin uptake (HeLa cells [6]): do not inhibit transferrin uptake
- Transferrin uptake (HeLa cells [6]): 0
- inhibition of MDM4/1 (MDM4/1): identified as inhibitors
- Surface interaction (EBOV [7]): +
- Uninfected cell number (EBOV [7]): 0
- enhancement of virus interaction with cells (EBOV [7]): 89%
- increase in virus particle binding to the cell surface (EBOV [7]): ~2 fold
- Curve class (MARV) (MARV): 1.3
- MARV (Curve class) (MARV): 1.3
- IC50 (MARV; read-out: IC-50 (MARV)): 6.26 µM
- IC50 (MARV; read-out: MARV HeLa IC50): 6.3 µM

SMILES: Cc1cc(N2CCN(C)CC2)nc2ccc(NC(=S)NCCCN3CCc4ccccc4C3)cc12 [MLS000730532]
- IC50 (EBOV [4]; read-out: EBOV HeLa IC50): 1.6 µM
- IC50 (EBOV [4]; read-out: IC-50 (EBOV)): 1.56 µM
- Acidification Block [2]: +
- effect on endosomal acidification [2]: affected endosomal acidification
- Cathepsin clevage (Cathepsin): 0
- NPC1 C-loop binding (NPC1 C-loop): 0
- secretion of IL-1-Beta (IL-1-Beta): inhibit secretion of IL-1-Beta
- reduction of uptake of fluorescently labeled dextran (HeLa cells [3]): ~74%
- Dextran Uptake (HeLa cells [3]): −
- IC50 (EBOV [5]; [9]): 9.5 µM
- effect on transferrin uptake (HeLa cells [6]): impaired uptake of this marker, comparable to chlorpromazine
- Transferrin uptake (HeLa cells [6]): −
- Surface interaction (EBOV [7]): 0
- Uninfected cell number (EBOV [7]): 0
- reduction of number of viral particles inside the cell body (EBOV [7]): 89%
- Curve class (MARV) (MARV): 1.3
- MARV (Curve class) (MARV): 1.3
- IC50 (MARV; read-out: IC-50 (MARV)): 1.93 µM
- IC50 (MARV; read-out: MARV HeLa IC50): 1.9 µM

SMILES: Cc1cc(-c2nn(-c3ccccc3F)cc2CN2CCN(c3ccncc3)CC2)c(C)s1 [MLS000733230, 1-[[3-(2,5-dimethylthiophen-3-yl)-1-(2-fluorophenyl)pyrazol-4-yl]methyl]-4-pyridin-4-ylpiperazine]
- Curve Class (EBOV) (EBOV [4]): 1.3
- EBOV (curve class) (EBOV [4]): 1.3
- potency for Ebolavirus inhibition, times better than EIPA (EBOV [4]): 7 times
- EC50 (EBOV [4]; HeLa, read-out: EC50 for Ebolavirus inhibition): 6.7 µM
- IC50 (EBOV [4]; Zaire ebolavirus, HeLa, read-out: EBOV HeLa IC50 (μM)): 6.7 µM
- IC50 (EBOV [4]; Zaire ebolavirus, HeLa, read-out: IC-50 (EBOV)): 6.7 µM
- toxic concentration (not toxic up to / toxic at) (HeLa cells [1]; human): > 100 µM
- Acidification Block [2]: +
- effect on endosomal acidification [2]: affected endosomal acidification
- Cathepsin clevage (Cathepsin): 0
- NPC1 C-loop binding (NPC1 C-loop): 0
- secretion of IL-1-Beta (IL-1-Beta): inhibit secretion of IL-1-Beta
- reduction of uptake of fluorescently labeled dextran (HeLa cells [3]): approximately 91%
- Dextran Uptake (HeLa cells [3]): −
- IC50 (EBOV [5]; Zaire ebolavirus, Macrophage, read-out: Activity in macrophages IC50 (μM)): 4.4 µM
- effect on transferrin uptake (HeLa cells [6]): no effect on transferrin uptake
- Transferrin uptake (HeLa cells [6]): 0
- Surface interaction (EBOV [7]): 0
- Uninfected cell number (EBOV [7]): 0
- reduction of number of viral particles inside the cell body (EBOV [7]): 91%
- Curve class (MARV) (MARV): 1.3
- MARV (Curve class) (MARV): 1.3
- IC50 (MARV; Orthomarburgvirus, HeLa, read-out: IC-50 (MARV)): 11.7 µM
- IC50 (MARV; Orthomarburgvirus, HeLa, read-out: MARV HeLa IC50 (μM)): 11.7 µM

SMILES: Cc1nn2c(NCCCN(C)C)c3c(nc2c1-c1ccccc1)CCCC3 [MLS000762907]
- Curve Class (EBOV) (EBOV [4]): 1.3
- EBOV (curve class) (EBOV [4]): 1.3
- IC50 (EBOV [4]; read-out: EBOV HeLa IC50): 3.2 µM
- IC50 (EBOV [4]; read-out: IC-50 (EBOV)): 3.19 µM
- Effect on LAMP1 (LAMP1-positive vesicles): 0
- VLP colocalization with LAMP1 (LAMP1-positive vesicles): no effect
- Acidification Block [2]: +
- Cathepsin clevage (Cathepsin): 0
- Effect on EEA1 (EEA1-positive vesicles): 0
- VLP colocalization with EEA1 (EEA1-positive vesicles): colocalized with EEA1 positive vesicles normally; also recorded: no effect
- NPC1 C-loop binding (NPC1 C-loop): 0
- effect on macropinocytic uptake of dextran (HeLa cells [3]): not of dextran; also recorded: did not affect
- Dextran Uptake (HeLa cells [3]): 0
- IC50 (EBOV [5]; [9]): 23.4 µM
- effect on transferrin uptake (HeLa cells [6]): inhibited transferrin uptake; also recorded: reduced uptake of transferrin; also recorded: blocked uptake of transferrin
- Transferrin uptake (HeLa cells [6]): −
- Surface interaction (EBOV [7]): 0
- Uninfected cell number (EBOV [7]): 0
- virus particle binding to cell surface (EBOV [7]): did not affect
- Curve class (MARV) (MARV): 1.3
- MARV (Curve class) (MARV): 1.3
- IC50 (MARV; read-out: IC-50 (MARV)): 12.5 µM
- IC50 (MARV; read-out: MARV HeLa IC50): 12.5 µM
